pIC50: −log10 of the molar value.
Legend:
aldosterone synthase = biological target: T1, aldosterone synthase (Homo sapiens, UniProt P19099); assay: In vitro aldosterone synthase inhibition: aldosterone production in Ang II-stimulated NCI-H295R cells; format: cell-based; conditions: read-out: AS IC50
T1 construct: host or cells: NCI-H295R
T1 sequence (P19099 25-503): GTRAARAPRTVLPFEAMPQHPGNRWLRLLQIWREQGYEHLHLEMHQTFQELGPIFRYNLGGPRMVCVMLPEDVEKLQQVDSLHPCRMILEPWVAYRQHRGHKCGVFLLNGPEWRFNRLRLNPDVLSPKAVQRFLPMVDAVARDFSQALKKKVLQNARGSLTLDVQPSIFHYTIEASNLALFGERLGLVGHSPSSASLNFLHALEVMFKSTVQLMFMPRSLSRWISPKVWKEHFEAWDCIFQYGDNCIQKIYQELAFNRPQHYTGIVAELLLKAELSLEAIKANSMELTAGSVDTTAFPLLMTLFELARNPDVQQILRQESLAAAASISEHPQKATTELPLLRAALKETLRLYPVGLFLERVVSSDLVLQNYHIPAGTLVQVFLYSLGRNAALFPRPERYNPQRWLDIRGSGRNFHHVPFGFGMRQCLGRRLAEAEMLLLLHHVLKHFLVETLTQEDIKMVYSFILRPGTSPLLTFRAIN
Excerpt: In particular, the aldosterone synthase inhibitory activities in vitro can be determined by the following assay.
Human adrenocortical carcinoma NCI-H295R cell line is obtained from American Type Culture Collection (Manassas, Va.). Insulin/transferrin/selenium (ITS)-A supplement (100×), DMEM/F-12, antibiotic/antimycotic (100×), and fetal calf serum (FCS) are purchased from Gibco (Grand Island, N.Y.). Anti-mouse PVT scintillation proximity assay (SPA) beads and NBS 96-well plates are obtained from Amersham (Piscataway, N.J.) and Corning (Acton, Mass.), respectively. Solid black 96-well flat bottom plates were purchased from Costar (Corning; NY). Aldosterone and angiotensin (Ang II) are purchased from Sigma (St. Louis, Mo.). D[1,2,6,7-^3H(N)]aldosterone was acquired from PerkinElmer (Boston, Mass.). Nu-serum was a product of BD Biosciences (Franklin Lakes, N.J.). The NADPH regenerating system, dibenzylfluorescein (DBF), and human aromatase Supersomes® are obtained from Gentest (Woburn, Mass.). […]
Measurement of aldosterone activity can also be performed using a 96-well plate format. […] The amount of aldosterone in each sample is calculated by comparing with a standard curve generated using known quantities of the hormone.

CYP11B1 = biological target: T2, CYP11B1 (Homo sapiens, UniProt P15538); assay: In vitro CYP11B1 inhibition: steroid release from NCI-H295R cells; format: cell-based; conditions: 10 nM compound, read-out: 11B1 % Inhibition @ 10 nM
T2 construct: Thus, the NCl-H295R cells have Cyp11 B1 (steroid 11 p-hydroxylase); host or cells: NCI-H295R
T2 sequence (P15538 25-503): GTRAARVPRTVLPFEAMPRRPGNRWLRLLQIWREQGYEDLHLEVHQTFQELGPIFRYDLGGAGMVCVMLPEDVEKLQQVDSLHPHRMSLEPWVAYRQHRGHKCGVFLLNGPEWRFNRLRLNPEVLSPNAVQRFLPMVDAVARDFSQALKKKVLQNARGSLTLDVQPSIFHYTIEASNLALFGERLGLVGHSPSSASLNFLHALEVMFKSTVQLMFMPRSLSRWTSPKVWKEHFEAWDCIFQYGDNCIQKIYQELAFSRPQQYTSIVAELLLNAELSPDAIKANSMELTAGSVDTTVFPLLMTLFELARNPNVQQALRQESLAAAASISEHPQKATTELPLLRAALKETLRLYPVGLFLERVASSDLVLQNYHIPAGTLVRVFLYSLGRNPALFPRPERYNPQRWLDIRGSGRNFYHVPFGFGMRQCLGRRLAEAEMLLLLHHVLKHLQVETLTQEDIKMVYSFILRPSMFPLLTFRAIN
Excerpt: The in vitro inhibitory activities for CYP11B1 can be determined by the following assay.
The cell line NCI-H295R was originally isolated from an adrenocortical carcinoma and has been characterized in the literature through the stimulable secretion of steroid hormones and the presence of the enymes essential for steroidogenesis. Thus, the NCl-H295R cells have Cyp11 B1 (steroid 11 p-hydroxylase). The cells show the physiological property of zonally undifferentiated human foetal adrenocortical cells which, however, have the capacity to produce the steroid hormones which are formed in the three, phenotypically distinguishable zones in the adult adrenal cortex. […]
The excretion of aldosterone, cortisol, corticosterone and estradiol/estrone into the culture medium can be detected and quantified by commercially available, specific monoclonal antibodies in radioimmunoassays in accordance with the manufacturer's instructions.
Inhibition of the release of certain steroids can be used as a measure of the respective enzyme inhibition by the added test compounds. The dose-dependent inhibition of enzymic activity by a compound is calculated by means of an inhibition plot which is characterized by an IC50. […]

## CCC1(c2ccc(C#N)cc2OC)C(=O)N(Cc2ccc(Cl)cc2)Cc2cncn21 (stereo not drawn) [Compound 1, 4-[7-(4-Chloro-benzyl)-5-ethyl-6-oxo-5,6,7,8-tetrahydro-imidazo[1,5-a]pyrazin-5-yl]-3-methoxy-benzonitrile]
Aldosterone synthase
  pIC50: 7.92

## CCC1(c2ccc(C)cc2OC)C(=O)N(Cc2ccc(F)cc2)Cc2cncn21 (stereo not drawn) [Compound 8, 5-(2-Methoxy-4-methyl-phenyl)-5-ethyl-7-(4-fluoro-benzyl)-7,8-dihydro-imidazo[1,5-a]pyrazin-6-one]
CYP11B1
  inhibition at 0.01 µM: 98%

## CCC1(c2ccc(C#N)cc2F)C(=O)N(Cc2ccc(F)cc2)Cc2cncn21 (stereo not drawn) [Compound 7, 4-[5-Ethyl-7-(4-fluoro-benzyl)-6-oxo-5,6,7,8-tetrahydro-imidazo[1,5-a]pyrazin-5-yl]-3-fluoro-benzonitrile]
CYP11B1
  inhibition at 0.01 µM: 100%
